Legend:
MOLM-13 AML cells [1] = assay: Viable cells (annexin V negative and PI negative) by flow cytometry, MOLM-13; type: cell-based, human; settings: MOLM-13, 24 hr, clinically achievable concentrations
Experimental: (§1) FIG. 2A depicts the percentage of viable MOLM-13 AML cells following treatment of MOLM-13 AML cell lines with venetoclax (VEN) and d-cis-3-(4-hydroxyphenyl)-4-(4-hydroxyphenyl)-8-methylchroman-7-ol (Compound A), alone or in combination, for 24 h and then subjected to Annexin V-FITC/PI staining and flow cytometry analysis. Viable cells (annexin V negative and PI negative) were gated. Viable cell counts from no drug treatment controls were set at 100%, and the rest of the samples were normalized to the no drug treatment controls. The data were presented as mean percent of viable cells from triplicates with standard errors.
AML cell lines used as described herein include MOLM-13, MV4-11, and THP-1. […]
(§2) Human adult AML cell lines (MOLM-13), human childhood AML cell lines (MV4-11 and THP-1), and cytarabine-resistant (araC-R) acute monocytic leukemia (AMoL) cell lines (U937) are treated with venetoclax and d-cis-3-(4-hydroxyphenyl)-4-(4-hydroxyphenyl)-8-methylchroman-7-ol (Compound A), alone or in combination, and are subject to flow cytometry analysis using Annexin V-fluorescein isothiocyanate (FITC)/propidium iodide (PI) Apoptosis Kit (Beckman Coulter, Brea, Calif.). Results are expressed as percent Annexin V-positive (Annexin V+) cells. […] The extent and direction of the antileukemic interaction between venetoclax and Compound A is determined by calculating the combination index (CI). […]

MOLM-13 AML cells [2] = assay: Annexin V-FITC/PI apoptosis flow cytometry, MOLM-13; type: cell-based, human; settings: MOLM-13, 24 h, clinically achievable concentrations
Experimental: (§3) AML cell lines used as described herein include MOLM-13, MV4-11, and THP-1. MOLM-13 cells are purchased from AddexBio (San Diego, Calif., USA). MV4-11 and THP-1 cell lines are purchased from the American Type Culture Collection (Manassas, Va., USA). The cell lines are cultured in RPMI 1640 with 10-20% fetal bovine serum (Thermo Fisher Scientific, Waltham, Mass., USA), 2 mM L-glutamine, 100 U/mL penicillin, and 100 μg/mL streptomycin. All cells are cultured in a 37° C. humidified atmosphere containing 5% CO2/95% air. The cell lines are authenticated at the Genomics Core at Karmanos Cancer Institute using the Power-Plex 16 System from Promega (Madison, Wis., USA). […]
as §2

[3] = system: cytarabine resistant (araC-R) U937 acute monocytic leukemia (AMoL) cells; assay: Annexin V-FITC/PI apoptosis flow cytometry, araC-R U937; type: cell-based; settings: araC-R U937, 24 h, clinically achievable concentrations
Experimental: Human adult AML cell lines (MOLM-13), human childhood AML cell lines (MV4-11 and THP-1), and cytarabine-resistant (araC-R) acute monocytic leukemia (AMoL) cell lines (U937) are treated with venetoclax and d-cis-3-(4-hydroxyphenyl)-4-(4-hydroxyphenyl)-8-methylchroman-7-ol (Compound A), alone or in combination, and are subject to flow cytometry analysis using Annexin V-fluorescein isothiocyanate (FITC)/propidium iodide (PI) Apoptosis Kit (Beckman Coulter, Brea, Calif.). Results are expressed as percent Annexin V-positive (Annexin V+) cells. For the AML/AMoL cell lines, experiments are performed three independent times in triplicate, and the data presented are from one representative experiment. The extent and direction of the antileukemic interaction between venetoclax and Compound A is determined by calculating the combination index (CI). CI<1 indicates synergistic effects, CI=1 indicates additive effects, and CI>1 indicates antagonistic effects. ***indicates p<0.001 compared to control.

[4] = system: MV4-11 childhood AML cells; assay: Viable cells (annexin V negative and PI negative) by flow cytometry, MV4-11; type: cell-based, human; settings: MV4-11, 24 hr, clinically achievable concentrations
Experimental: as §1, with “FIG. 2B” for “FIG. 2A”, “viable MV4-11 childhood” for “viable MOLM-13”, “of MV4-11 childhood” for “of MOLM-13”, “24 h.” for “24 h”, “errors. […]” for “errors.”
as §2

[5] = system: THP-1 childhood AML cells; assay: Viable cells (annexin V negative and PI negative) by flow cytometry, THP-1; type: cell-based, human; settings: THP-1, 24 hr, clinically achievable concentrations
Experimental: as §1, with “FIG. 2C” for “FIG. 2A”, “viable THP-1 childhood” for “viable MOLM-13”, “of THP-1 childhood” for “of MOLM-13”, “24 h.” for “24 h”, “errors. […]” for “errors.”
as §2

[6] = system: THP-1 childhood AML cells; assay: Annexin V-FITC/PI apoptosis flow cytometry, THP-1; type: cell-based, human; settings: THP-1, 24 h, clinically achievable concentrations
Experimental: as §3, §2

[7] = system: MV4-11 childhood AML cells; assay: Annexin V-FITC/PI apoptosis flow cytometry, MV4-11; type: cell-based, human; settings: MV4-11, 24 h, clinically achievable concentrations
Experimental: as §3, §2

In the case of `Cc1c(O)ccc2c1OC[C@@H](c1ccc(O)cc1)[C@H]2c1ccc(O)cc1` [Compound A, d-cis-3-(4-hydroxyphenyl)-4-(4-hydroxyphenyl)-8-methylchroman-7-ol], the “viability (percent of viable cells vs no drug control)” value (MOLM-13 AML cells [1]) is reported as “dose-dependent decrease in viability”, the “apoptosis (Annexin V+ cells)” value (MOLM-13 AML cells [2]) is reported as “high levels of apoptosis” and the “apoptosis (Annexin V+ cells)” value [3] is reported as “high levels of apoptosis”. The “viability (percent of viable cells vs no drug control)” value [4] was “dose-dependent decrease in viability”, the “viability (percent of viable cells vs no drug control)” value [5] was “dose-dependent decrease in viability” and the “apoptosis (Annexin V+ cells)” value [6] was “high levels of apoptosis”. The “apoptosis (Annexin V+ cells)” value [7] was “high levels of apoptosis”.
